Measured values reported in paper PMC5654968 (NPJ Systems Biology and Applications, 2017).
Like-named read-outs stand apart in the source and are kept apart here.

Assay type: in vivo, rat
Method: Distilled water and saline were administered as vehicle to rats in each control group. […] Plasma cytokine levels were measured by ELISA or multiplex immunoassay; common metabolites and lipid mediators were analyzed by GC-MS/MS and LC-MS/MS, respectively.
Pathway maps of lipid mediators were created by using CellDesigner 4.4 software (http://www.celldesigner.org). We evaluated the effects of the treatments on specific lipid mediators and categorized them according to COX, CYP and LOX pathways by Fisher’s exact test. The proinflammatory and anti-inflammatory indices were analyzed as described by Tam et al. with modification.[22]

[1] = PM/P (polyI:C+maoto vs polyI:C), 2h
[2] = PM/P (polyI:C+maoto vs polyI:C), 4h

Row | SMILES | log2FC of plasma level (M/C (maoto vs control), 2h) | log2FC of plasma level (M/C (maoto vs control), 4h) | log2FC of plasma level (P/C (polyI:C vs control), 2h) | log2FC of plasma level (P/C (polyI:C vs control), 4h) | log2FC of plasma level [1] | log2FC of plasma level [2]
1 | CCCCCC1OC1C/C=C\C/C=C\C/C=C\CCCC(=O)O (stereo not drawn) [14,15-EET] | -0.23 | -0.59 | -0.40 | 0.01 | 0.02 | -0.47
2 | CC/C=C\C/C=C\CC(O)/C=C/C=C\C/C=C\C/C=C\CCC(=O)O (stereo not drawn) [14-HDoHE] | 0.82 | -0.39 | -0.32 | 0.40 | 0.58 | -0.58
3 | CCCCCC(O)/C=C/C=C\CCCCCCCCCC(=O)O (stereo not drawn) [15-HEDE] | 0.33 | -0.76 | -0.05 | 0.71 | 0.14 | -1.18
4 | CC/C=C\CC(O)/C=C/C=C\C/C=C\C/C=C\CCCC(=O)O (stereo not drawn) [15-HEPE] | 0.47 | -0.29 | 0.28 | 0.06 | -0.02 | -0.55
5 | CCCCC[C@H](O)/C=C/C=C\C/C=C\C/C=C\CCCC(=O)O [15-HETE] | -0.07 | -0.49 | -0.12 | 0.56 | -0.02 | -0.78
6 | CCCCCC(O)/C=C/C=C\C/C=C\CCCCCCC(=O)O (stereo not drawn) [15-HETrE] | 0.77 | 0.00 | 0.20 | 1.11 | 0.25 | -0.98
7 | CCCCCC(=O)/C=C/C=C\CCCCCCCCCC(=O)O [15-KEDE] | 0.13 | -0.62 | -0.26 | 0.83 | 0.21 | -1.15
8 | CCCCCC(=O)/C=C/[C@H]1[C@H](O)CC(=O)[C@@H]1C/C=C\CCCC(=O)O [15-keto-PGE2] | -0.28 | -0.61 | -0.15 | 0.64 | -0.07 | -1.08
9 | CC/C=C\C=C\C(O)C/C=C\C/C=C\C/C=C\C/C=C\CCC(=O)O (stereo not drawn) [16-HDoHE] | 0.10 | -0.60 | -0.12 | 0.38 | 0.16 | -0.76
10 | CCCCC(O)/C=C\C/C=C\C/C=C\C/C=C\CCCC(=O)O (stereo not drawn) [16-HETE] | 0.13 | -0.23 | 0.13 | 0.70 | -0.02 | -0.94
11 | CCC(O)C(O)C/C=C\C/C=C\C/C=C\C/C=C\CCCC(=O)O (stereo not drawn) [17,18-DiHETE] | 0.60 | -0.17 | 0.19 | 0.32 | -0.30 | -0.38
12 | CC/C=C\CC(O)/C=C/C=C\C/C=C\C/C=C\C/C=C\CCC(=O)O (stereo not drawn) [17-HDoHE] | 0.30 | -0.62 | -0.12 | 0.47 | 0.18 | -0.79
13 | CCCC(O)C/C=C\C/C=C\C/C=C\C/C=C\CCCC(=O)O (stereo not drawn) [17-HETE] | 0.20 | 0.07 | 0.59 | 0.13 | 0.42 | 0.16
14 | CCC(O)/C=C/C=C\C/C=C\C/C=C\C/C=C\CCCC(=O)O (stereo not drawn) [18-HEPE] | 0.08 | -0.59 | 0.02 | 0.07 | -0.16 | -0.77
15 | CCC(O)CC/C=C\C/C=C\C/C=C\C/C=C\CCCC(=O)O (stereo not drawn) [18-HETE] | 0.16 | -0.08 | 0.25 | -0.05 | -0.26 | -0.07
16 | CC(O)CCC/C=C\C/C=C\C/C=C\C/C=C\CCCC(=O)O (stereo not drawn) [19-HETE] | 1.44 | 0.46 | 0.66 | -0.33 | 0.46 | 0.72
17 | CCC(O)/C=C/C=C\C/C=C\C/C=C\C/C=C\C/C=C\CCC(=O)O (stereo not drawn) [20-HDoHE] | -0.10 | -0.54 | -0.13 | 0.44 | 0.06 | -0.71
